Six compounds from US7452908B2, “Amide derivatives” (Banyu Pharmaceutical Co., Ltd., priority 1999, dated 2008) can be followed below.

One may read the Ki as a measure of affinity in units of concentration, obtained from inhibition or displacement. Low values mean higher affinity, high ones lower affinity.

The target of test [1] is T1, human m4 muscarinic acetylcholine receptor expressed in CHO cells (Homo sapiens, UniProt P08173).
T1 construct: purchased Receptor Biology, Inc; host or cells: CHO cells
T1 sequence (P08173 1-479): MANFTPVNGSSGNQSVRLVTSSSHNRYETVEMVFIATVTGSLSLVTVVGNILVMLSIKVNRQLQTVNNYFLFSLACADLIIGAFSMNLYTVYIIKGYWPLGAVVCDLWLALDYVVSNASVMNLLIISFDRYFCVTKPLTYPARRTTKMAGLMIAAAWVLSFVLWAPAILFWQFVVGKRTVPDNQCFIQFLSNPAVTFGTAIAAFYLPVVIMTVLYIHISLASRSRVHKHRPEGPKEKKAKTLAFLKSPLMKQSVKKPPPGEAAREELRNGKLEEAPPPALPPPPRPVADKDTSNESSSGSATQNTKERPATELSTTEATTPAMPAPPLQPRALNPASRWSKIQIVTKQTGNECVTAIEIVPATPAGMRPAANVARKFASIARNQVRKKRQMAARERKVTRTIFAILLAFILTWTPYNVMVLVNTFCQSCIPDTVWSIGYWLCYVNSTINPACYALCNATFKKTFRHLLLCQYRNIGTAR
Put plainly: Inhibition of [3H]-N-methylscopolamine binding to muscarinic m4 receptor. As to conditions: 0.2 nM [3H]-N-methylscopolamine. The procedure: (§1) These tests were performed according to a modification of the method of Hargreaves, et al. (Br. J. Pharmacol. 107: 494-501, 1992). Namely, muscarinic acetylcholine receptors of human m1, m2, m3, m4 and m5 expressed in CHO cells (Receptor Biology, Inc.) were incubated with 0.2 nM [^3H]-N-methylscopolamine (82Ci/mmol, New England Nuclear, Inc.) and a test compound to be tested in 0.5 ml of 50 mM Tris-HCl, 10 mM MgCl2, 1 mM EDTA solution (pH 7.4) for 120 minutes at room temperature (about 20-25° C.), followed by suction filtration over a glass filter (UniFilter plate-GF/C; Packard). Then the filter was washed four times with 1 ml of ice-cold Tris-HCl buffer and dried at 50° C. for an hour. After adding a scintillator (Microscinti 0; Packard), the radioactivity of [^3H]-N-methylscopolamine binding to the filter was counted with a microplate scintillation counter (TopCount™; Packard). Non-specific receptor binding of [^3H]-N-methylscopolamine was measured by adding 1 μM N-methylscopolamine.

The target of test [2] is T2, human m2 muscarinic acetylcholine receptor expressed in CHO cells (Homo sapiens, UniProt P08172).
T2 construct: purchased Receptor Biology, Inc; host or cells: CHO cells
T2 sequence (P08172 1-466): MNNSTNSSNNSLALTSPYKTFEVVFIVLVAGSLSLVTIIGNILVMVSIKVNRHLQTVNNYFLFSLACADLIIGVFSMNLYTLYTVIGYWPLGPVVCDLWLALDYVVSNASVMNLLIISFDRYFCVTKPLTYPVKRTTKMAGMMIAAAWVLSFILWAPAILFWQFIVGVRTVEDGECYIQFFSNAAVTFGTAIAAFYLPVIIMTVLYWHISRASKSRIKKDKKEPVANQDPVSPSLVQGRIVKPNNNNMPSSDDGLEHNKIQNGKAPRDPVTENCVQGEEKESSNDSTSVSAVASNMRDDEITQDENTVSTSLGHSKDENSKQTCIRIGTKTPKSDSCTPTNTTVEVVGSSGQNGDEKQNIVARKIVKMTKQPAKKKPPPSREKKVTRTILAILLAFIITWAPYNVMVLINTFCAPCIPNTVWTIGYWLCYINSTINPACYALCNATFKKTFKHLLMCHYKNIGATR
Put plainly: Inhibition of [3H]-N-methylscopolamine binding to muscarinic m2 receptor. As to conditions: 0.2 nM [3H]-N-methylscopolamine. The procedure:
as §1

The target of test [3] is T3, human m1 muscarinic acetylcholine receptor expressed in CHO cells (Homo sapiens, UniProt P11229).
T3 construct: purchased Receptor Biology, Inc; host or cells: CHO cells
T3 sequence (P11229 1-460): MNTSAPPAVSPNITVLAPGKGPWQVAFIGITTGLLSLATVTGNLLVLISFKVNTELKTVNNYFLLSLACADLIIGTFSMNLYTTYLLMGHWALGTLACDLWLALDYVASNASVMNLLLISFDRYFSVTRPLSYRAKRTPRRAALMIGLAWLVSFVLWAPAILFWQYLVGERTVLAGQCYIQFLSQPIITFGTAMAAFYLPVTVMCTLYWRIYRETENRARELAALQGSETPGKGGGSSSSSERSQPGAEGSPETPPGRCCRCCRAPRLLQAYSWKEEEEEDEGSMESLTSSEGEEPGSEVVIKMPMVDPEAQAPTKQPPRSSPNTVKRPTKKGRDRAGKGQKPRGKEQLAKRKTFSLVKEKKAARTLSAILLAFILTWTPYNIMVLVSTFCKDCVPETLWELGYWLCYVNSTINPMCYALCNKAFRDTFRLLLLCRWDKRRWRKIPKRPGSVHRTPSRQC
Put plainly: Inhibition of [3H]-N-methylscopolamine binding to muscarinic m1 receptor. As to conditions: 0.2 nM [3H]-N-methylscopolamine. The protocol: as §1

For test [4], the target named is T4, human m3 muscarinic acetylcholine receptor expressed in CHO cells (Homo sapiens, UniProt P20309).
T4 construct: purchased Receptor Biology, Inc; host or cells: CHO cells
T4 sequence (P20309 whole entry): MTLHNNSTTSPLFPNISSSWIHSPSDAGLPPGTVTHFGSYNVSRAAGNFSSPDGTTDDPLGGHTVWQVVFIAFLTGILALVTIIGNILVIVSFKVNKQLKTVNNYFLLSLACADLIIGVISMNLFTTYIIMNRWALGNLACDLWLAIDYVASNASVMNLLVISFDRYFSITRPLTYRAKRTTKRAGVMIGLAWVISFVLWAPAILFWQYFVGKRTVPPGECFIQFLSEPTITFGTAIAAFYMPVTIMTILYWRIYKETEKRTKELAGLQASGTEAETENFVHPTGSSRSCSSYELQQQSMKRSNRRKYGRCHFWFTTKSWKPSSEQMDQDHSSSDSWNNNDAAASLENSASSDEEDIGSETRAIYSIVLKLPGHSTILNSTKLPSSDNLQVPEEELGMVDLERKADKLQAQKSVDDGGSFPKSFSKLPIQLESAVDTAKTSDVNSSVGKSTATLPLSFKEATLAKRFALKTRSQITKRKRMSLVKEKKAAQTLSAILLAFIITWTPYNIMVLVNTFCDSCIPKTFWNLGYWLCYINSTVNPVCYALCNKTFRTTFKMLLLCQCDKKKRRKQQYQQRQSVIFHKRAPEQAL
Kind of test: Inhibition of [3H]-N-methylscopolamine binding to muscarinic m3 receptor. The note with it: for Ki: human m3 in CHO cells, 0.2 nM [3H]-N-methylscopolamine; for Selectivity m1/m3: ratio of Ki m1 to Ki m3; for Selectivity m2/m3: ratio of Ki m2 to Ki m3; for Selectivity m4/m3: ratio of Ki m4 to Ki m3; for Selectivity m5/m3: ratio of Ki m5 to Ki m3. The protocol: as §1

Test [5] has as its target T5, human m5 muscarinic acetylcholine receptor expressed in CHO cells (Homo sapiens, UniProt P08912).
T5 construct: purchased Receptor Biology, Inc; host or cells: CHO cells
T5 sequence (P08912 1-532): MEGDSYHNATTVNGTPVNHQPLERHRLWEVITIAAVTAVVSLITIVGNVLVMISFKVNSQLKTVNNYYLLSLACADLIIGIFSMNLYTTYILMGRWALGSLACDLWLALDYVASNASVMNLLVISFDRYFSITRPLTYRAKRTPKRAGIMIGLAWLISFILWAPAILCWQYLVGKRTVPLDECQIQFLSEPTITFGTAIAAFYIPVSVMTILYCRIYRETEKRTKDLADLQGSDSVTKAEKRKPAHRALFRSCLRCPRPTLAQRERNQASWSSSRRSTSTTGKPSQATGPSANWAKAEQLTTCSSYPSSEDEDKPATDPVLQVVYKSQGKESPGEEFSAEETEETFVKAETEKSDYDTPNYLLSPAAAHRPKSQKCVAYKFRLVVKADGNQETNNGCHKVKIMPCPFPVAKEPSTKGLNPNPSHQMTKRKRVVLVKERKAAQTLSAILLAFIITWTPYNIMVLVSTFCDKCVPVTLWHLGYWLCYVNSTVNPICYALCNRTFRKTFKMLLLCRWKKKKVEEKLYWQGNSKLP
Kind of test: Inhibition of [3H]-N-methylscopolamine binding to muscarinic m5 receptor. As to conditions: 0.2 nM [3H]-N-methylscopolamine. The protocol:
as §1

With `O=C(CCNC(=O)[C@H](Cc1c[nH]cn1)NC(=O)CC(c1ccccc1)(c1ccccc1)c1ccccc1)NC[C@H]1CCCN(CC2CCCCC2)C1` [Example 19, N-{(1S)-2-(3-{((3R)-1-cyclohexylmethyl-3-piperidyl)methyl}-amino-3-oxopropyl)amino-1-(1H-imidazol-4-ylmethyl)-2-oxoethyl}-3,3,3-triphenylpropanamide], the Ki in test [1] amounted to 0.0081 µM. Further, in test [2], the affinity corresponds to a Ki of 0.03 µM. In test [3], this compound yielded a Ki of 0.27 µM. Further, in test [4], the Ki worked out at 0.00075 µM, the “Selectivity m1/m3” value is 360 times, the “Selectivity m2/m3” value is recorded as 40 times and the “Selectivity m4/m3” value was determined as 11 times. Further, the “Selectivity m5/m3” value in test [4] was 25 times. In addition, the Ki in test [5] was 0.019 µM.

Regarding `CC[N+]1(CC)CCC[C@H](CNC(=O)[C@H]2CCCN2C(=O)[C@@H]2C[C@@H](O)CN2C(=O)CC(c2ccc(Cl)cc2)(c2ccc(Cl)cc2)c2ccc(Cl)cc2)C1.[Cl-]` [Example 144, (3R)-1,1-diethyl-3-({({(2R)-1-({(2S,4R)-4-hydroxy-1-{3,3,3-tris-(4-chlorophenyl)propanoyl}-2-pyrrolidinyl}carbonyl)-2-pyrrolidinyl}-carbonyl)amino}methyl)piperidinium chloride], the Ki stood at 0.027 µM in test [1]; 0.11 µM in test [2]; 0.11 µM in test [3]; 0.0013 µM in test [4]; 0.23 µM in test [5]. Besides, the “Selectivity m1/m3” value in test [4] is reported as 85 times. In test [4], the “Selectivity m2/m3” value came out at 85 times. The “Selectivity m4/m3” value in test [4] worked out at 21 times. Further, in test [4], the “Selectivity m5/m3” value stood at 180 times.

As for `CCCCCN1CCC[C@H](CNC(=O)CCNC(=O)CNC(=O)CC(c2ccccc2)(c2ccccc2)c2ccccc2)C1` [Example 6, N-{2-(3-{((3R)-1-pentyl-3-piperidyl)methyl}amino-3-oxopropyl)amino-2-oxoethyl}-3,3,3-triphenylpropanamide], the Ki was 0.066 µM in test [1]; 0.25 µM in test [2]; 0.86 µM in test [3]; 0.0018 µM in test [4]; 0.082 µM in test [5]. In addition, the “Selectivity m1/m3” value in test [4] is listed as 480 times. Further, the “Selectivity m2/m3” value in test [4] is 140 times. In test [4], the “Selectivity m4/m3” value is 37 times. For the same compound, in test [4], the “Selectivity m5/m3” value came out at 46 times.

For `CCCCCCC[N+]1(C)CCC[C@H](CNC(=O)CCNC(=O)CNC(=O)CC(c2ccccc2)(c2ccccc2)c2ccccc2)C1.[Br-]` (stereo partly drawn) [Example 146, (3R)-1-heptyl-1-methyl-3-({(3-{(2-{(3,3,3-triphenylpropanoyl)amino}acetyl)amino}propanoyl)amino}methyl)piperidinium bromide], the Ki in test [1] was 0.36 µM. In test [2], this compound yielded an inhibitory constant (Ki) of 1 µM. Moreover, in test [3], the inhibition constant Ki turned out to be 1.2 µM. In test [4], the affinity corresponds to a Ki of 0.015 µM, the “Selectivity m1/m3” value was determined as 80 times, the “Selectivity m2/m3” value was 67 times and the “Selectivity m4/m3” value turned out to be 24 times. Also, the “Selectivity m5/m3” value in test [4] came out at 33 times. For the same compound, affinity in test [5] was put at a Ki of 0.49 µM.

Compound `CC[C@H](C)C[N+]1(CC)CCC[C@@H](CNC(=O)CCCCCNC(=O)CC(c2ccccc2)(c2ccccc2)c2ccccc2)C1.[Cl-]` (stereo partly drawn) [Example 150, (3S)-1-ethyl-1-{(2S)-2-methylbutyl}-3-({(6-{(3,3,3-triphenylpropanoyl)amino}hexanoyl)amino}methyl)piperidinium chloride] displayed an inhibition constant (Ki) in test [1] of 0.31 µM. Moreover, in test [2], the Ki came to 0.49 µM. In test [3], this compound had a Ki of 0.15 µM. For the same compound, in test [4], the affinity corresponds to a Ki of 0.0047 µM, the “Selectivity m1/m3” value was 32 times, the “Selectivity m2/m3” value is on record as 100 times and the “Selectivity m4/m3” value amounted to 66 times. For the same compound, the “Selectivity m5/m3” value in test [4] turned out to be 180 times. In addition, the affinity in test [5] corresponds to a Ki of 0.85 µM.

On to `O=C(CCCCCNC(=O)CC(c1ccccc1)(c1ccccc1)c1ccccc1)NC[C@H]1CCCN(CC2CCCCC2)C1` [Example 28, N-(6-{((3R)-1-cyclohexylmethyl-3-piperidyl)methyl}amino-6-oxohexyl)-3,3,3-triphenylpropanamide], for which the Ki in test [1] came to 0.036 µM; in test [2], 0.085 µM; in test [3], 0.13 µM; in test [4], 0.0012 µM; in test [5], 0.22 µM. In addition, in test [4], the “Selectivity m1/m3” value is given as 110 times. In test [4], the “Selectivity m2/m3” value worked out at 71 times. In addition, in test [4], the “Selectivity m4/m3” value amounted to 30 times. Besides, the “Selectivity m5/m3” value in test [4] amounted to 180 times.
